In ChEMBL document CHEMBL1909574, “Acid mediated formation of an N-acyliminium ion from tubulysins: a new methodology for the synthesis of natural tubulysins and their analogs” (Bioorg Med Chem Lett, 2011):

What follows are compounds tested on KB (assay: Growth inhibition of human KB cells by [3H]thymidine incorporation assay). Settings: Homo sapiens, KB.
Assay type: functional, cell-based

Question: How did the IC50 turn out when CC[C@H](C)[C@H](NC(=O)[C@H]1CCCCN1C)C(=O)N(COCCO)[C@H](C[C@@H](OC(C)=O)c1nc(C(=O)N[C@@H](Cc2ccc(O)cc2)C[C@H](C)C(=O)O)cs1)C(C)C was run?
Answer: 18 nM

Question: With CC[C@H](C)[C@H](NC(=O)[C@H]1CCCCN1C)C(=O)N(CSCCS)[C@H](C[C@@H](OC(C)=O)c1nc(C(=O)N[C@@H](Cc2ccc(O)cc2)C[C@H](C)C(=O)O)cs1)C(C)C as the compound, how does the IC50 read?
Answer: 26 nM

Question: For CCCOCN(C(=O)[C@@H](NC(=O)[C@H]1CCCCN1C)[C@@H](C)CC)[C@H](C[C@@H](OC(C)=O)c1nc(C(=O)N[C@@H](Cc2ccc(O)cc2)C[C@H](C)C(=O)O)cs1)C(C)C, which IC50 is on record?
Answer: 1.4 nM

Question: CCCCSCN(C(=O)[C@@H](NC(=O)[C@H]1CCCCN1C)[C@@H](C)CC)[C@H](C[C@@H](OC(C)=O)c1nc(C(=O)N[C@@H](Cc2ccc(O)cc2)C[C@H](C)C(=O)O)cs1)C(C)C was tested. Which IC50 did it give?
Answer: 0.7 nM

Question: With CC[C@H](C)[C@H](NC(=O)[C@H]1CCCCN1C)C(=O)N(CNC(=O)CC(C)C)[C@H](C[C@@H](OC(C)=O)c1nc(C(=O)N[C@@H](Cc2ccc(O)cc2)C[C@H](C)C(=O)O)cs1)C(C)C as the compound, how does the IC50 read?
Answer: 8 nM

Question: With CCSCN(C(=O)[C@@H](NC(=O)[C@H]1CCCCN1C)[C@@H](C)CC)[C@H](C[C@@H](OC(C)=O)c1nc(C(=O)N[C@@H](Cc2ccc(O)cc2)C[C@H](C)C(=O)O)cs1)C(C)C as the compound, how does the IC50 read?
Answer: 2 nM

Question: With CC[C@H](C)[C@H](NC(=O)[C@H]1CCCCN1C)C(=O)N(CSCCO)[C@H](C[C@@H](OC(C)=O)c1nc(C(=O)N[C@@H](Cc2ccc(O)cc2)C[C@H](C)C(=O)O)cs1)C(C)C as the compound, how does the IC50 read?
Answer: 26 nM

Question: Which IC50 does the source give for CCCCCSCN(C(=O)[C@@H](NC(=O)[C@H]1CCCCN1C)[C@@H](C)CC)[C@H](C[C@@H](OC(C)=O)c1nc(C(=O)N[C@@H](Cc2ccc(O)cc2)C[C@H](C)C(=O)O)cs1)C(C)C here?
Answer: 0.8 nM

Question: For CCCSCN(C(=O)[C@@H](NC(=O)[C@H]1CCCCN1C)[C@@H](C)CC)[C@H](C[C@@H](OC(C)=O)c1nc(C(=O)N[C@@H](Cc2ccc(O)cc2)C[C@H](C)C(=O)O)cs1)C(C)C, which IC50 is on record?
Answer: 1.4 nM

Question: CC[C@H](C)[C@H](NC(=O)[C@H]1CCCCN1C)C(=O)N(COCCC(C)C)[C@H](C[C@@H](OC(C)=O)c1nc(C(=O)N[C@@H](Cc2ccc(O)cc2)C[C@H](C)C(=O)O)cs1)C(C)C was tested. Which IC50 did it give?
Answer: 12 nM

Question: For CCCC(=O)OCN(C(=O)[C@@H](NC(=O)[C@H]1CCCCN1C)[C@@H](C)CC)[C@H](C[C@@H](OC(C)=O)c1nc(C(=O)N[C@@H](Cc2ccc(O)cc2)C[C@H](C)C(=O)O)cs1)C(C)C [TUBULYSIN B], which IC50 is on record?
Answer: 2 nM

Question: With CC[C@H](C)[C@H](NC(=O)[C@H]1CCCCN1C)C(=O)N(COC)[C@H](C[C@@H](OC(C)=O)c1nc(C(=O)N[C@@H](Cc2ccc(O)cc2)C[C@H](C)C(=O)O)cs1)C(C)C as the compound, how does the IC50 read?
Answer: 9 nM

Question: Which IC50 does the source give for C=CCCN(C(=O)[C@@H](NC(=O)[C@H]1CCCCN1C)[C@@H](C)CC)[C@H](C[C@@H](OC(C)=O)c1nc(C(=O)N[C@@H](Cc2ccc(O)cc2)C[C@H](C)C(=O)O)cs1)C(C)C here?
Answer: 1.3 nM

Same assay, conditions: kb

Question: With CC[C@@H](C)[C@H](NC(=O)[C@H]1CCCCN1C)C(=O)N(COC(=O)CC(C)C)[C@H](C[C@@H](OC(C)=O)c1nc(C(=O)N[C@@H](Cc2ccc(O)cc2)C[C@H](C)C(=O)O)cs1)C(C)C [TUBULYSIN A] as the compound, how does the IC50 read?
Answer: 1 nM
